Patent EP4635500A1, “THERAPEUTIC AGENT FOR BACTERIAL INFECTION” (Sumitomo Pharma Co., Ltd., priority 2022, dated 2024)
Where two headings read alike, the source gives them in different places.

What was measured:
P. aeruginosa = experiment: MIC, broth microdilution, CDC/FDA Antibiotic Resistance Isolate Bank (Example 7, Tables 10, 15); type: cell-based; details: for MIC: Pseudomonas aeruginosa, read-out: MIC
[1] = tested on: Metallo-β-lactamase producing strains (N = 27); experiment: MIC50/MIC90 for carbapenemase-producing isolates (Example 5, Table 6); type: cell-based; details: metallo-β-lactamase-producing strains; combination: Compound A at a fixed concentration of 4 µg/mL; read-out: MIC90
[2] = 26 metallo-carbapenemase-producing P. aeruginosa strains, β-lactamase inhibitor µg/mL in parentheses
[3] = 96 strains of P. aeruginosa, β-lactamase inhibitor µg/mL in parentheses

CN(C)c1cc(NC(=O)CNC(C)(C)C)c(O)c2c1C[C@H]1C[C@H]3[C@H](N(C)C)C(O)=C(C(N)=O)C(=O)[C@@]3(O)C(O)=C1C2=O [Tigecycline, tigecycline]
0.004 µg/mL: MIC (P. aeruginosa; P. aeruginosa KUB No. 5816, AR Bank # 511) | MIC (P. aeruginosa; P. aeruginosa KUB No. 5819, AR Bank # 514) | MIC (P. aeruginosa; P. aeruginosa KUB No. 5821, AR Bank # 516) | MIC (P. aeruginosa; P. aeruginosa KUB No. 5831, AR Bank # 526) | MIC (P. aeruginosa; P. aeruginosa KUB No. 5833, AR Bank # 528) | MIC (P. aeruginosa; P. aeruginosa KUB No. 5834, AR Bank # 529)
0.008 µg/mL: MIC (P. aeruginosa; P. aeruginosa KUB No. 5814, AR Bank # 509) | MIC (P. aeruginosa; P. aeruginosa KUB No. 5818, AR Bank # 513) | MIC (P. aeruginosa; P. aeruginosa KUB No. 5820, AR Bank # 515)
0.016 µg/mL: MIC (P. aeruginosa; P. aeruginosa KUB No. 5813, AR Bank # 508) | MIC (P. aeruginosa; P. aeruginosa KUB No. 5817, AR Bank # 512) | MIC (P. aeruginosa; P. aeruginosa KUB No. 5823, AR Bank # 518)
0.5 - 16 µg(mL): MIC against 96 strains of P. aeruginosa MICrange (P. aeruginosa; [3])
4 µg(mL): MIC against 26 metallo-carbapenemase-producing strains MIC50 (P. aeruginosa; [2]) | MIC against 96 strains of P. aeruginosa MIC50 (P. aeruginosa; [3])
1 µg/mL: MIC (P. aeruginosa; P. aeruginosa KUB No. 5676, AR Bank # 243) | MIC (P. aeruginosa; P. aeruginosa KUB No. 5696, AR Bank # 263) | MIC (P. aeruginosa; P. aeruginosa KUB No. 5798, AR Bank # 455)
0.002 µg/mL: MIC (P. aeruginosa; P. aeruginosa KUB No. 5815, AR Bank # 510) | MIC (P. aeruginosa; P. aeruginosa KUB No. 5832, AR Bank # 527)
8 µg/mL: MIC (P. aeruginosa; P. aeruginosa KUB No. 5591, AR Bank # 94) | MIC (P. aeruginosa; P. aeruginosa KUB No. 5602, AR Bank # 105) | MIC (P. aeruginosa; P. aeruginosa KUB No. 5605, AR Bank # 108) | MIC (P. aeruginosa; P. aeruginosa KUB No. 5607, AR Bank # 110) | MIC (P. aeruginosa; P. aeruginosa KUB No. 5608, AR Bank # 111) | MIC (P. aeruginosa; P. aeruginosa KUB No. 5666, AR Bank # 23) | MIC (P. aeruginosa; P. aeruginosa KUB No. 5668, AR Bank # 235) | MIC (P. aeruginosa; P. aeruginosa KUB No. 5673, AR Bank # 240) | MIC (P. aeruginosa; P. aeruginosa KUB No. 5690, AR Bank # 257) | MIC (P. aeruginosa; P. aeruginosa KUB No. 5694, AR Bank # 261) | MIC (P. aeruginosa; P. aeruginosa KUB No. 5698, AR Bank # 265) | MIC (P. aeruginosa; P. aeruginosa KUB No. 5699, AR Bank # 266) | MIC (P. aeruginosa; P. aeruginosa KUB No. 5700, AR Bank # 267) | MIC (P. aeruginosa; P. aeruginosa KUB No. 5703, AR Bank # 270) | MIC (P. aeruginosa; P. aeruginosa KUB No. 5747, AR Bank # 351) | MIC (P. aeruginosa; P. aeruginosa KUB No. 5748, AR Bank # 352) | MIC (P. aeruginosa; P. aeruginosa KUB No. 5751, AR Bank # 355) | MIC (P. aeruginosa; P. aeruginosa KUB No. 5753, AR Bank # 357) | MIC (P. aeruginosa; P. aeruginosa KUB No. 5786, AR Bank # 440) | MIC (P. aeruginosa; P. aeruginosa KUB No. 5799, AR Bank # 456) | MIC (P. aeruginosa; P. aeruginosa KUB No. 5801, AR Bank # 458) | MIC (P. aeruginosa; P. aeruginosa KUB No. 5804, AR Bank # 862) | MIC (P. aeruginosa; P. aeruginosa KUB No. 5805, AR Bank # 863)
1 - 16 µg(mL): MIC against 26 metallo-carbapenemase-producing strains MICrange (P. aeruginosa; [2])
16 µg(mL): MIC against 26 metallo-carbapenemase-producing strains MIC90 (P. aeruginosa; [2]) | MIC against 96 strains of P. aeruginosa MIC90 (P. aeruginosa; [3])
16 µg/mL: MIC (P. aeruginosa; P. aeruginosa KUB No. 5551, AR Bank # 54) | MIC (P. aeruginosa; P. aeruginosa KUB No. 5597, AR Bank # 100) | MIC (P. aeruginosa; P. aeruginosa KUB No. 5600, AR Bank # 103) | MIC (P. aeruginosa; P. aeruginosa KUB No. 5662, AR Bank # 229) | MIC (P. aeruginosa; P. aeruginosa KUB No. 5664, AR Bank # 231) | MIC (P. aeruginosa; P. aeruginosa KUB No. 5677, AR Bank # 244) | MIC (P. aeruginosa; P. aeruginosa KUB No. 5678, AR Bank # 245)
2 µg/mL: MIC (P. aeruginosa; P. aeruginosa KUB No. 5561, AR Bank # 64) | MIC (P. aeruginosa; P. aeruginosa KUB No. 5587, AR Bank # 90) | MIC (P. aeruginosa; P. aeruginosa KUB No. 5592, AR Bank # 95) | MIC (P. aeruginosa; P. aeruginosa KUB No. 5667, AR Bank # 234) | MIC (P. aeruginosa; P. aeruginosa KUB No. 5670, AR Bank # 237) | MIC (P. aeruginosa; P. aeruginosa KUB No. 5675, AR Bank # 242) | MIC (P. aeruginosa; P. aeruginosa KUB No. 5681, AR Bank # 248) | MIC (P. aeruginosa; P. aeruginosa KUB No. 5686, AR Bank # 253) | MIC (P. aeruginosa; P. aeruginosa KUB No. 5688, AR Bank # 255) | MIC (P. aeruginosa; P. aeruginosa KUB No. 5691, AR Bank # 258) | MIC (P. aeruginosa; P. aeruginosa KUB No. 5693, AR Bank # 260) | MIC (P. aeruginosa; P. aeruginosa KUB No. 5695, AR Bank # 262) | MIC (P. aeruginosa; P. aeruginosa KUB No. 5697, AR Bank # 264) | MIC (P. aeruginosa; P. aeruginosa KUB No. 5701, AR Bank # 268) | MIC (P. aeruginosa; P. aeruginosa KUB No. 5705, AR Bank # 272) | MIC (P. aeruginosa; P. aeruginosa KUB No. 5749, AR Bank # 353) | MIC (P. aeruginosa; P. aeruginosa KUB No. 5752, AR Bank # 356) | MIC (P. aeruginosa; P. aeruginosa KUB No. 5800, AR Bank # 457) | MIC (P. aeruginosa; P. aeruginosa KUB No. 5806, AR Bank # 864)
0.5 µg/mL: MIC (P. aeruginosa; P. aeruginosa KUB No. 5685, AR Bank # 252)
4 µg/mL: MIC (P. aeruginosa; P. aeruginosa KUB No. 579, AR Bank # 447) | MIC (P. aeruginosa; P. aeruginosa KUB No. 5589, AR Bank # 92) | MIC (P. aeruginosa; P. aeruginosa KUB No. 5663, AR Bank # 230) | MIC (P. aeruginosa; P. aeruginosa KUB No. 5665, AR Bank # 232) | MIC (P. aeruginosa; P. aeruginosa KUB No. 5669, AR Bank # 236) | MIC (P. aeruginosa; P. aeruginosa KUB No. 5671, AR Bank # 238) | MIC (P. aeruginosa; P. aeruginosa KUB No. 5672, AR Bank # 239) | MIC (P. aeruginosa; P. aeruginosa KUB No. 5674, AR Bank # 241) | MIC (P. aeruginosa; P. aeruginosa KUB No. 5679, AR Bank # 246) | MIC (P. aeruginosa; P. aeruginosa KUB No. 5680, AR Bank # 247) | MIC (P. aeruginosa; P. aeruginosa KUB No. 5682, AR Bank # 249) | MIC (P. aeruginosa; P. aeruginosa KUB No. 5684, AR Bank # 251) | MIC (P. aeruginosa; P. aeruginosa KUB No. 5692, AR Bank # 259) | MIC (P. aeruginosa; P. aeruginosa KUB No. 5702, AR Bank # 269) | MIC (P. aeruginosa; P. aeruginosa KUB No. 5704, AR Bank # 271) | MIC (P. aeruginosa; P. aeruginosa KUB No. 5750, AR Bank # 354) | MIC (P. aeruginosa; P. aeruginosa KUB No. 5754, AR Bank # 358) | MIC (P. aeruginosa; P. aeruginosa KUB No. 5755, AR Bank # 359) | MIC (P. aeruginosa; P. aeruginosa KUB No. 5756, AR Bank # 360) | MIC (P. aeruginosa; P. aeruginosa KUB No. 5785, AR Bank # 439) | MIC (P. aeruginosa; P. aeruginosa KUB No. 5787, AR Bank # 441) | MIC (P. aeruginosa; P. aeruginosa KUB No. 5788, AR Bank # 443) | MIC (P. aeruginosa; P. aeruginosa KUB No. 5789, AR Bank # 444) | MIC (P. aeruginosa; P. aeruginosa KUB No. 5790, AR Bank # 445) | MIC (P. aeruginosa; P. aeruginosa KUB No. 5793, AR Bank # 449) | MIC (P. aeruginosa; P. aeruginosa KUB No. 5802, AR Bank # 459) | MIC90 [1]
